From ChEMBL document CHEMBL4373704, “Mucosal Vaccination with a Self-Adjuvanted Lipopeptide Is Immunogenic and Protective against Mycobacterium tuberculosis” (J Med Chem, 2019)
Calls of active or inactive are those of the source. No cut-off for these calls is given here.

How the values were obtained:
Mus musculus [1] = organism: Mus musculus; experiment: Induction of antigen-specific immunogenicity in C57BL/6 mouse assessed as induction of pulmonary CD4+ T-lymphocyte responses by measuring lung ESAT6-specific CD4+ T-lymphocytes producing TNFalpha at 14.2 ug, in measured 3 weeks after the final vaccination by immunostaining and flow cytometry; type: functional, organism-based
Mus musculus [2] = organism: Mus musculus; experiment: Induction of antigen-specific immunogenicity in C57BL/6 mouse assessed as induction of pulmonary CD4+ T-lymphocyte responses by measuring spleen ESAT6-specific CD4+ T-lymphocytes producing TNFalpha at 14.2 ug, in measured 3 weeks after the final vaccination by immunostaining and flow cytometry; type: functional, organism-based
Mus musculus [3] = experiment: Induction of antigen-specific immunogenicity in C57BL/6 mouse assessed as induction of pulmonary CD4+ T-lymphocyte responses by measuring lung ESAT6-specific CD4+ T-lymphocytes producing IFNgamma at 56.8 ug, sc measured 3 weeks after the final vaccination by immunostaining and flow cytometry; type: functional, organism-based
Mus musculus [4] = organism: Mus musculus; experiment: Induction of antigen-specific immunogenicity in C57BL/6 mouse assessed as induction of pulmonary CD4+ T-lymphocyte responses by measuring lung ESAT6-specific CD4+ T-lymphocytes producing IL-2 at 14.2 ug, in measured 3 weeks after the final vaccination by immunostaining and flow cytometry; type: functional, organism-based
Mus musculus [5] = experiment: Induction of antigen-specific immunogenicity in C57BL/6 mouse assessed as induction of pulmonary CD4+ T-lymphocyte responses by measuring lung ESAT6-specific CD4+ T-lymphocytes producing TNFalpha at 56.8 ug, sc measured 3 weeks after the final vaccination by immunostaining and flow cytometry; type: functional, organism-based
Mus musculus [6] = experiment: Induction of antigen-specific immunogenicity in C57BL/6 mouse assessed as induction of pulmonary CD4+ T-lymphocyte responses by measuring lung ESAT6-specific CD4+ T-lymphocytes producing IL-17 at 56.8 ug, sc measured 3 weeks after the final vaccination by immunostaining and flow cytometry; type: functional, organism-based
[7] = target: Toll-like receptor 2 (Homo sapiens) (UniProt O60603); experiment: Activation of YFP-tagged TLR2 (unknown origin) expressed in HEK293 cells assessed as induction of IL8 secretion at 33.5 ug/mL incubated for 16 to 18 hrs by ELISA; type: cell-based
Mus musculus [8] = organism: Mus musculus; experiment: Induction of antigen-specific immunogenicity in C57BL/6 mouse assessed as induction of pulmonary CD4+ T-lymphocyte responses by measuring lung ESAT6-specific CD4+ T-lymphocytes producing IL-17 at 14.2 ug, in measured 3 weeks after the final vaccination by immunostaining and flow cytometry; type: functional, organism-based
Mus musculus [9] = organism: Mus musculus; experiment: Induction of antigen-specific immunogenicity in C57BL/6 mouse assessed as induction of pulmonary CD4+ T-lymphocyte responses by measuring lung ESAT6-specific CD4+ T-lymphocytes producing INFNgamma at 14.2 ug, in measured 3 weeks after the final vaccination by immunostaining and flow cytometry; type: functional, organism-based
Mus musculus [10] = experiment: Induction of antigen-specific immunogenicity in C57BL/6 mouse assessed as induction of pulmonary CD4+ T-lymphocyte responses by measuring lung ESAT6-specific CD4+ T-lymphocytes producing IL-2 at 56.8 ug, sc measured 3 weeks after the final vaccination by immunostaining and flow cytometry; type: functional, organism-based
Mus musculus [11] = experiment: Induction of antigen-specific immunogenicity in C57BL/6 mouse assessed as induction of pulmonary CD4+ T-lymphocyte responses by measuring spleen ESAT6-specific CD4+ T-lymphocytes producing TNFalpha at 56.8 ug, sc measured 3 weeks after the final vaccination by immunostaining and flow cytometry; type: functional, organism-based
Mus musculus [12] = experiment: Induction of antigen-specific immunogenicity in C57BL/6 mouse assessed as induction of pulmonary CD4+ T-lymphocyte responses by measuring spleen ESAT6-specific CD4+ T-lymphocytes producing IL-17 at 56.8 ug, sc measured 3 weeks after the final vaccination by immunostaining and flow cytometry; type: functional, organism-based
Mus musculus [13] = experiment: Induction of antigen-specific immunogenicity in C57BL/6 mouse assessed as induction of pulmonary CD4+ T-lymphocyte responses by measuring spleen ESAT6-specific CD4+ T-lymphocytes producing IFNgamma at 56.8 ug, sc measured 3 weeks after the final vaccination by immunostaining and flow cytometry; type: functional, organism-based
Mus musculus [14] = organism: Mus musculus; experiment: Induction of antigen-specific immunogenicity in C57BL/6 mouse assessed as induction of pulmonary CD4+ T-lymphocyte responses by measuring spleen ESAT6-specific CD4+ T-lymphocytes producing IL-17 at 14.2 ug, in measured 3 weeks after the final vaccination by immunostaining and flow cytometry; type: functional, organism-based
Mus musculus [15] = experiment: Induction of antigen-specific immunogenicity in C57BL/6 mouse assessed as induction of pulmonary CD4+ T-lymphocyte responses by measuring spleen ESAT6-specific CD4+ T-lymphocytes producing IL-2 at 56.8 ug, sc measured 3 weeks after the final vaccination by immunostaining and flow cytometry; type: functional, organism-based
Mus musculus [16] = organism: Mus musculus; experiment: Induction of antigen-specific immunogenicity in C57BL/6 mouse assessed as induction of pulmonary CD4+ T-lymphocyte responses by measuring spleen ESAT6-specific CD4+ T-lymphocytes producing IFNgamma at 14.2 ug, in measured 3 weeks after the final vaccination by immunostaining and flow cytometry; type: functional, organism-based
Mus musculus [17] = organism: Mus musculus; experiment: Induction of antigen-specific immunogenicity in C57BL/6 mouse assessed as induction of pulmonary CD4+ T-lymphocyte responses by measuring spleen ESAT6-specific CD4+ T-lymphocytes producing IL-2 at 14.2 ug, in measured 3 weeks after the final vaccination by immunostaining and flow cytometry; type: functional, organism-based
Mus musculus [18] = organism: Mus musculus; experiment: Induction of antigen-specific immunogenicity in C57BL/6 mouse assessed as induction of pulmonary CD4+ T-lymphocyte responses by measuring lung ESAT6-specific CD8+ T-lymphocytes producing IL-2 at 10 ug, in measured 3 weeks after the final vaccination by immunostaining and flow cytometry; type: functional, organism-based
Mus musculus [19] = experiment: Induction of antigen-specific immunogenicity in C57BL/6 mouse assessed as induction of pulmonary CD4+ T-lymphocyte responses by measuring spleen ESAT6-specific CD8+ T-lymphocytes producing TNFalpha at 10 ug, sc measured 3 weeks after the final vaccination by immunostaining and flow cytometry; type: functional, organism-based
Mus musculus [20] = organism: Mus musculus; experiment: Induction of antigen-specific immunogenicity in C57BL/6 mouse assessed as induction of pulmonary CD4+ T-lymphocyte responses by measuring lung ESAT6-specific CD8+ T-lymphocytes producing IFNgamma at 10 ug, in measured 3 weeks after the final vaccination by immunostaining and flow cytometry; type: functional, organism-based
Mus musculus [21] = experiment: Induction of antigen-specific immunogenicity in C57BL/6 mouse assessed as induction of pulmonary CD4+ T-lymphocyte responses by measuring spleen ESAT6-specific CD8+ T-lymphocytes producing IFNgamma at 10 ug, sc measured 3 weeks after the final vaccination by immunostaining and flow cytometry; type: functional, organism-based
Mus musculus [22] = organism: Mus musculus; experiment: Induction of antigen-specific immunogenicity in C57BL/6 mouse assessed as induction of pulmonary CD4+ T-lymphocyte responses by measuring lung ESAT6-specific CD8+ T-lymphocytes producing TNFalpha at 10 ug, in measured 3 weeks after the final vaccination by immunostaining and flow cytometry; type: functional, organism-based
Mus musculus [23] = organism: Mus musculus; experiment: Induction of antigen-specific immunogenicity in C57BL/6 mouse assessed as induction of pulmonary CD4+ T-lymphocyte responses by measuring lung ESAT6-specific CD8+ T-lymphocytes producing IL-17 at 10 ug, in measured 3 weeks after the final vaccination by immunostaining and flow cytometry; type: functional, organism-based
[24] = target: Toll-like receptor 2 (Homo sapiens) (UniProt O60603); experiment: Activation of YFP-tagged TLR2 (unknown origin) expressed in HEK293 cells assessed as induction of IL8 secretion at 8 ug/mL incubated for 16 to 18 hrs by ELISA; type: cell-based

Sequence of Toll-like receptor 2 (Homo sapiens) (O60603 whole entry): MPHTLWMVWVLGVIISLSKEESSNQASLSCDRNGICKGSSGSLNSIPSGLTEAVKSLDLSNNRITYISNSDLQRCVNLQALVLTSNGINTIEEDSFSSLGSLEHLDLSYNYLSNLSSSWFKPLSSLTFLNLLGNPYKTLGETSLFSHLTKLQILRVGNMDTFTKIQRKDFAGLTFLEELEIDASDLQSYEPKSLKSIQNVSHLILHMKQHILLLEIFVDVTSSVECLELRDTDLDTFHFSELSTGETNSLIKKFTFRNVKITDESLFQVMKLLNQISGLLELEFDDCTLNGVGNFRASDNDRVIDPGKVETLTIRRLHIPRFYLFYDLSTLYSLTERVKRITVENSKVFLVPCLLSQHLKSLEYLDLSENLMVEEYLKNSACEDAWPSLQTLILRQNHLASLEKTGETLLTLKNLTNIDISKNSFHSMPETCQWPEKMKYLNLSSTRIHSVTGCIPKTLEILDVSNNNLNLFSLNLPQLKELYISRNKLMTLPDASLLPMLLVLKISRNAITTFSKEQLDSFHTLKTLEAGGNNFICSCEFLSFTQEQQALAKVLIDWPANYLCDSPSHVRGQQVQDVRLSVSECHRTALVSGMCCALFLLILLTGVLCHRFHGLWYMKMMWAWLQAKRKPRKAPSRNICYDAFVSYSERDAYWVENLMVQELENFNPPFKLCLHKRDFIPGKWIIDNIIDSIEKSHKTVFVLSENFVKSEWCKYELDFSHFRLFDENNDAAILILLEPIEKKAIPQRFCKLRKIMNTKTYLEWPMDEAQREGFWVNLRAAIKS

CCCCCCCCCCCCCCCC(=O)OC[C@H](CSC[C@H](N)C(=O)N[C@@H](CO)C(=O)N[C@@H](CCCCN)C(=O)N[C@@H](CCCCN)C(=O)N[C@@H](CCCCN)C(=O)N[C@@H](CCCCN)C(=O)NCCOCCOCC(=O)N[C@@H](CCSC)C(=O)N[C@H](C(=O)N[C@@H](CCC(=O)O)C(=O)N[C@@H](CCC(N)=O)C(=O)N[C@@H](CCC(N)=O)C(=O)N[C@@H](Cc1c[nH]c2ccccc12)C(=O)N[C@@H](CC(N)=O)C(=O)N[C@@H](Cc1ccccc1)C(=O)N[C@@H](C)C(=O)NCC(=O)N[C@H](C(=O)N[C@@H](CCC(=O)O)C(=O)N[C@@H](C)C(=O)N[C@@H](C)C(=O)N[C@@H](C)C(=O)N[C@@H](CO)C(=O)N[C@@H](C)C(=O)N[C@H](C(=O)N[C@@H](CCC(N)=O)C(=O)NCC(=O)N[C@@H](CCC(N)=O)C(=O)N[C@H](C(=O)N[C@@H](CCSC)C(=O)N[C@@H](Cc1ccc(O)cc1)C(=O)N[C@@H](CC(N)=O)C(=O)N[C@@H](Cc1ccc(O)cc1)C(=O)N1CCC[C@H]1C(=O)N[C@@H](C)C(=O)N[C@@H](CCSC)C(=O)O)[C@@H](C)CC)[C@@H](C)CC)[C@@H](C)CC)[C@@H](C)O)OC(=O)CCCCCCCCCCCCCCC
Activity (Mus musculus [1]): Active
Activity (Mus musculus [2]): Active
Activity (Mus musculus [3]): inactive
Activity (Mus musculus [4]): Active
Activity (Mus musculus [5]): inactive
Activity (Mus musculus [6]): inactive
Activity [7]: Active
Activity (Mus musculus [8]): Active
Activity (Mus musculus [9]): Active
Activity (Mus musculus [10]): inactive
Activity (Mus musculus [11]): Active
Activity (Mus musculus [12]): inactive
Activity (Mus musculus [13]): inactive
Activity (Mus musculus [14]): Active
Activity (Mus musculus [15]): Active
Activity (Mus musculus [16]): Active
Activity (Mus musculus [17]): Active

H-QIMYNYPAM-OH
Activity (Mus musculus [18]): inactive
Activity (Mus musculus [19]): Active
Activity (Mus musculus [20]): inactive
Activity (Mus musculus [21]): Active
Activity (Mus musculus [22]): inactive
Activity (Mus musculus [23]): inactive
Activity [24]: inactive
